Test results taken from PubChem BioAssay (NCI).
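1) Cells in 96-well plates. 2) Compound, 48 h, 5 concentrations. 3) Linear interpolation between surrounding doses. 4) Unreached endpoint = highest concentration. GI50 is the concentration that inhibits growth by half. TGI is the concentration that stops growth completely.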

Experiments:
Assay in all cases: NCI anticancer screen, dose series, 48 h
[1] = tested on: RPMI-8226 leukemia
[2] = tested on: CCRF-CEM leukemia
[3] = tested on: SF-539 CNS
[4] = tested on: HOP-62 NSCLC
[5] = tested on: MDA-N
[6] = tested on: A498 renal
[7] = tested on: HCC-2998 colon
[8] = tested on: SK-OV-3 ovarian
[9] = tested on: NCI-H460 lung
[10] = tested on: SF-268 CNS
[11] = tested on: NCI/ADR-RES ovarian
[12] = tested on: SK-MEL-2 melanoma
[13] = tested on: NCI-H522 lung
[14] = tested on: SR leukemia

Compound	TGI [1] [µM]	TGI [2] [µM]	TGI [3] [µM]	TGI [4] [µM]	TGI [5] [µM]	TGI [6] [µM]	TGI [7] [µM]	TGI [8] [µM]	TGI [9] [µM]	TGI [10] [µM]	TGI [11] [µM]	TGI [12] [µM]	TGI [13] [µM]	TGI [14] [µM]	GI50 [1] [nM]	GI50 [4] [nM]	GI50 [13] [nM]	GI50 [7] [nM]	GI50 [10] [nM]	GI50 [11] [nM]
CCOC(=O)Cc1nc2nn(Cc3ccccc3)cc2c(=O)[nH]1	> 100	> 100	> 100	> 100	> 100	> 100	> 100	> 100	> 100	> 100	> 100	–	–	–	–	–	–	–	–	–
Cc1ccc2nc(CN3CCCCC3)cc(=O)n2c1	> 100	> 100	> 100	> 100	–	–	> 100	> 100	> 100	> 100	> 100	> 100	> 100	> 100	–	–	–	–	–	–
CC(=O)OCCC[C@@H]1C(=C(C)C)CCC2[C@@]1(C)CC[C@@]1(C)C[C@](C)(CCC=C(C)C)CC[C@]21C (stereo not given in full)	> 100	> 100	> 100	> 100	> 100	> 100	> 100	> 100	> 100	> 100	> 100	–	> 100	–	–	–	–	–	–	–
CC1(C)C[C@H]2C3=CC[C@@H]4[C@@]5(C)CC[C@H](O)C(C)(C)[C@@H]5CC[C@@]4(C)[C@]3(C)C[C@@H](O)[C@@]23C[C@@H]1OC3=O	> 100	> 100	> 100	> 100	–	> 100	> 100	> 100	> 100	> 100	> 100	> 100	> 100	> 100	–	–	–	–	–	–
O=C(n1[nH]c(=O)n(-c2ccc([N+](=O)[O-])cc2)c1=O)C(Cl)(Cl)Cl	> 75	–	–	> 75	> 75	–	> 75	> 75	> 75	> 75	> 75	> 75	> 75	> 75	–	–	–	–	–	–
CO[C@H]1C[C@@H]2CC[C@@H](C)[C@@](O)(O2)C(=O)C(=O)N2CCCC[C@H]2C(=O)O[C@H]([C@H](C)C[C@@H]2CC[C@@H](OC(=O)C(C)(CO)CO)[C@H](OC)C2)CC(=O)[C@H](C)/C=C(\C)[C@@H](O)[C@@H](OC)C(=O)[C@H](C)C[C@H](C)/C=C/C=C/C=C/1C	> 29.3	–	5.23	> 100	> 73.4	–	> 46.9	> 100	–	> 85.7	72.5	> 55.1	> 49.6	–	< 24.7	< 20.2	121	1.54	2990	1010
CSC1=N/C(=C\c2ccc(Cl)cc2)C(=O)N1CN1CCOCC1	> 100	> 100	–	> 100	> 100	> 100	–	> 100	–	> 100	> 100	> 100	> 100	> 100	–	–	–	–	–	–
C=CCNC(NCC=C)=C(C(Cl)=C(Cl)Cl)[N+](=O)[O-]	> 100	> 100	71.7	> 100	> 100	> 100	> 100	> 100	> 100	> 100	> 100	> 100	–	–	–	–	–	–	–	–
C=C(CO)[C@H]1CC/C(C)=C/CC/C(C)=C/C/C=C(\C)[C@H](O)C1	51.6	> 100	40.8	> 100	> 100	–	32.2	> 100	62.7	51.4	90.3	51.5	32.1	–	–	–	–	–	–	–
CCOC(=O)C1C(C(C)C)C2(C#N)C(=N)OC1(C)C2(C#N)C#N (stereo not given)	> 100	> 100	> 100	–	33.6	> 100	> 100	> 100	–	> 100	> 100	> 100	> 100	–	–	–	–	–	–	–
C#CCOC(=O)C(N)CS (stereo not given)	> 100	> 100	–	> 100	> 100	> 100	–	> 100	–	> 100	> 100	> 100	> 100	–	–	–	–	–	–	–
Cc1cc2c(cc1Cl)SC(NNC(=O)c1ccncc1)=NS2(=O)=O	> 10	> 10	> 10	> 10	> 10	> 10	> 10	> 10	> 10	> 10	> 10	> 10	> 10	–	–	–	–	–	–	–
CC(=O)CCC(=O)CC(O)(C(F)(F)F)C(F)(F)F	49.8	51	31.9	33.6	–	17.6	33.6	–	38.6	44.6	58.7	–	–	32	–	–	–	–	–	–
CC(C)CC(NC(=O)OCc1ccccc1)C(=O)NCCCCC(N)C(=O)NC(CCCCNC(=O)C(CC(C)C)NC(=O)OCc1ccccc1)C(=O)NC(CCCCNC(=O)C(CC(C)C)NC(=O)OCc1ccccc1)C(=O)NC(CCCCNC(=O)C(CC(C)C)NC(=O)OCc1ccccc1)C(=O)NC(CCCCNC(=O)C(CC(C)C)NC(=O)OCc1ccccc1)C(=O)NC(CCCCNC(=O)C(CC(C)C)NC(=O)OCc1ccccc1)C(=O)O (stereo not given)	> 100	> 100	–	> 100	> 100	> 100	> 100	–	> 100	–	–	> 100	> 100	> 100	–	–	–	–	–	–
Nc1ccccc1C(=O)NNC(=O)c1ccccc1N	> 100	> 100	> 100	> 100	> 100	> 100	> 100	> 100	–	–	> 100	> 100	> 100	–	–	–	–	–	–	–
COCC1OCCN1C (stereo not given)	> 100	> 100	> 100	> 100	> 100	> 100	–	> 100	> 100	> 100	> 100	> 100	> 100	> 100	–	–	–	–	–	–
CCCCC1(OC(=O)CCC(=O)O)CCC2(CCC(C)C(C/C=C(C)/C=C/C(O)C(C)/C=C/C(=O)O)O2)OC1CC/C(C)=C/C(=O)O (stereo not given)	> 37.3	27.4	3.51	4.96	–	12.6	9.98	25.4	18.4	7.22	–	3.18	7.72	> 48.7	–	–	–	–	–	–
